# Measured values from patent US12144814B2, “Compositions containing paraxanthine and beta-hydroxybutyrate or precursor for increasing neurological and physiological performance” (priority 2023, dated 2024).
# How the values were obtained:
# healthy young adults = assay: Sternberg Test; type: in vivo; conditions: 200 mg paraxanthine; 5 g BHB; 200 mg paraxanthine and 5 g BHB; letter length 2, 4, 6; FIGS. 9-11
# Excerpt: The Sternberg Test is a test routinely used in the field to evaluate working memory, and ability to make use of short-term memory. A lower reaction time means that participants can access their working memory faster. The Sternberg Task Test is a widely used paradigm for studying short term/working memory involving cognitive control processes. Participants are asked to remember a short series of letters or other characters and then the participants has to respond if the series of letters or characters is present in a larger series of letters or characters. Reaction time is measured when the remembered short series is both present or absent. Mean response time is recorded. When running each such tests, subjects are given either paraxanthine+BHB, paraxanthine alone, BHB alone, or a placebo. The dosage amounts are 200 mg paraxanthine and 5 g of BHB, 200 mg of paraxanthine alone, 5 g of BHB alone, or a placebo. The testing is conducted under double blind, placebo controlled conditions. The subjects include 13 healthy young adults (10 male, 3 female), aged 24±5 years; height 170.0±11.8 cm; weight 72.9±19.3 kg.
# [1] = test system: healthy trained male runners; assay: Berg-Washington Card Sorting Task Test before and after 10 km treadmill run; type: in vivo; conditions: 200 mg paraxanthine, 200 mg caffeine, 5 g BHB, and combinations, after 10 km treadmill run
# Excerpt: The Berg-Washington Card Sorting Task (BCST) test is a test routinely used in the field to evaluate cognitive flexibility. The BCST test focuses on basic cognitive flexibility or set-shifting between old vs. new rule changes. The test involves reasoning, learning, executive control, and attention shifting. It is particularly sensitive to the subject's inability to shift set. Cards are shown with different colors (e.g., red, green, yellow, blue), different designs (e.g., circle, triangle, star, plus sign) and different numbers of symbols (e.g., 1-4) on the computer screen. Participants are asked to sort the cards by matching colors and/or designs and/or number of symbols, where the instruction for how to sort the cards can change, at different times during the test. Number of correct responses and number of errors (particular perservative errors, where the participant incorrectly continues sorting the cards under an old instruction, after a new instruction is given) are recorded. […] The testing is conducted under double blind, placebo controlled conditions. The subjects include 12 healthy trained male runners, aged 26±5 years. Baseline cognition tests are administered (PRE), the given supplement is ingested, and after 60 minutes of rest, a pre-race cognition test (PRE-EX) is administered. […]
# [2] = 28-day sports nutrition clinical study; type: in vivo; conditions: paraxanthine 100 mg, paraxanthine 100 mg with BHB 5 g, 28 days, exercise 5 days per week
# Excerpt: Participants exercise 5 days per week, of the 4-week study. […] Increases in nitric oxide levels, as well as improved blood lipids scores (e.g., TG, TC, LDL, HDL) are also observed.
# [3] = Age-related cognitive decline study; type: in vivo
# mice [4] = assay: Forced Swim Test on mice; type: in vivo; conditions: PX 100 mg
# mice [5] = assay: Cook's Pole Climbing Test on mice; type: in vivo; conditions: PX 100 mg
# [6] = Clinical Stroop Test study; type: in vivo; conditions: paraxanthine 200 mg; BHB 5 g; paraxanthine 200 mg with BHB 5 g; 6-week period; FIGS. 15A-15C
# Excerpt: The Stroop effect refers to the delay in reaction time between congruent and incongruent stimuli. […] When paired with paraxanthine, the combination provides a synergistic improvement in mental acuity.
# [7] = cited from earlier work
# adenosine A1 receptors = biological target: T1, adenosine A1 receptors (Homo sapiens, UniProt P30542); conditions: compared with caffeine; cited from earlier work
# T1 sequence (P30542 1-326): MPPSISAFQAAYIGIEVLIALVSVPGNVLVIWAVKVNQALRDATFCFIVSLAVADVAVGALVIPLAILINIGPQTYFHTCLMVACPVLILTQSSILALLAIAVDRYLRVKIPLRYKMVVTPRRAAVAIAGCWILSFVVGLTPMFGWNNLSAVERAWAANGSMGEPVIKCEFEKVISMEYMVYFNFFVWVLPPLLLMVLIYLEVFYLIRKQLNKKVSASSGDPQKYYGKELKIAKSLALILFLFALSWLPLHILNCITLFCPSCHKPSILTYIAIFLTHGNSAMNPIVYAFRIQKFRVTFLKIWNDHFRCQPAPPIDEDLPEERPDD
# adenosine A2a receptors = adenosine A2a receptors (Homo sapiens, UniProt P29274); conditions: compared with caffeine; cited from earlier work
# dopaminergic neurons = conditions: cited from earlier work
# [8] = elevated doses; cited from earlier work
# adenosine A2a receptors, sequence (P29274 whole entry): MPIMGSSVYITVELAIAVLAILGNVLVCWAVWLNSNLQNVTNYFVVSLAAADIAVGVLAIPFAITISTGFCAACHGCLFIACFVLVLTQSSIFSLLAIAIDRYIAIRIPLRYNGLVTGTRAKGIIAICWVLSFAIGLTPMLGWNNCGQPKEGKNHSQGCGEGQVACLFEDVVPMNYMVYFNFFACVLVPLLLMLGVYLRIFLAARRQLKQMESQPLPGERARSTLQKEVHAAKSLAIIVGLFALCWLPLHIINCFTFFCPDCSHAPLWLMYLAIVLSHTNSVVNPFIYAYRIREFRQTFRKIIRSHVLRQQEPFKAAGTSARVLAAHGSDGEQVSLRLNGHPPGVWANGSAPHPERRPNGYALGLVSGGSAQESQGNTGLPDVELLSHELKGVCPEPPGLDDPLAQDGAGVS
compound,measurement,setting,value
"Cn1c(=O)[nH]c2ncn(C)c2c1=O [paraxanthine, 1,7-dimethylxanthine]",Sternberg Test mean response time,healthy young adults,decreased mean response time
same,"Berg-Washington Card Sorting Task Test correct responses, POST relative to PRE",[1]; FIG. 12A,some improvement in correct responses
same,"Berg-Washington Card Sorting Task Test errors, POST relative to PRE",[1]; FIGS. 12B-12D,reduced errors
same,endurance (treadmill distance),[2]; FIG. 14A,some improvement
same,muscle mass,[2]; FIG. 14B,some improvement
same,grip strength,[2]; FIG. 14C,some improvement
same,Acetylcholine,[3]; PX 25 mg,61.04 U/mL
same,BDNF,[3]; PX 25 mg,828.05 pg/mL
same,Catalase,[3]; PX 25 mg,30.24 U/mL
same,Dopamine,[3]; PX 25 mg,493.65 ng/L
same,Escape Latency,[3]; PX 25 mg,49.9 s
same,Glutathione,[3]; PX 25 mg,24.04 µg/mL
same,Acetylcholine,[3]; PX 100 mg,69.27 U/mL
same,BDNF,[3]; PX 100 mg,939.15 pg/mL
same,Catalase,[3]; PX 100 mg,38.91 U/mL
same,Dopamine,[3]; PX 100 mg,596.32 ng/L
same,Escape Latency,[3]; PX 100 mg,21.31 s
same,Glutathione,[3]; PX 100 mg,34.41 µg/mL
same,Duration of Immobility,mice [4],5.85 min
same,Duration of mobility/active swimming,mice [4],24.15 min
same,No. of Climbing,mice [5],2.75
same,Stroop test number of correct answers,[6],some improvement
same,Stroop test reaction speed,[6],some improvement
same,half-life,"[7]; elimination half-life, FIG. 3",3.1 h
same,Total plasma clearance,[7]; in vivo,2.20 mL/min/kg
same,binding potency for adenosine A1 receptors,adenosine A1 receptors,higher binding potencies
same,binding potency for adenosine A2a receptors,adenosine A2a receptors,higher binding potencies
same,protection against neurodegeneration and the loss of synaptic function,dopaminergic neurons,strongly protective
same,hypothermia and reduced locomotor activity,[8],no such problems are observed
